Assay results as given in patent publication US12575567B2, “Fungicidal compositions” (priority 2020, dated 2026).
Where “and” joins values, the source holds several entries; their conditions need not be identical. Equal values may be shown once. Numbered stars: 1 amine (or outer) side, 2 acyl side, 3 side chain; on linkers, the order of the positions; unused ones are H or OH. Square brackets hold non-standard residues; d marks the D form. Peptide text beside a SMILES is read from it. X1 = CC[C@@H](C)[C@@H](O[*:1])C(=O)[*:2]; NMeVal(β-OH) = CN[C@H](C(=O)O)C(C)(C)O; NMeF = CN[C@@H](Cc1ccccc1)C(=O)O; aIle = CC[C@@H](C)[C@H](N)C(=O)O; NMeV = CN[C@H](C(=O)O)C(C)C

Columns and labels:
Alternaria solani = experiment: Liquid culture test in well plates, Alternaria solani (Early Blight of Tomato/Potato), Example 1-2; assay type: cell-based; conditions: 48 hours; for (A) inhibition: Aureobasidin A alone
Method: Mycelia fragments or conidia suspensions of a fungus, prepared either freshly from liquid cultures of the fungus or from cryogenic storage, are directly mixed into nutrient broth. DMSO solutions of the test compound (max. 10 mg/mL) is diluted with 0.025% Tween20 by factor 50 and 10 μL of this solution is pipetted into a microtiter plate (96-well format). […] The test plates are incubated in the dark at 24° C. and 96% relative humidity (rh). […]
Conidia of the fungus from cryogenic storage were directly mixed into nutrient broth (PDB potato dextrose broth). After placing a DMSO solution of the test compositions into a microtiter plate (96-well format) the nutrient broth containing the fungal spores was added.

Botrytis cinerea = experiment: Liquid culture test in well plates, Botrytis cinerea (Gray Mould), Example 1-1; assay type: cell-based; conditions: 72 hours; for (A) inhibition: Aureobasidin A alone
Method: Mycelia fragments or conidia suspensions of a fungus, prepared either freshly from liquid cultures of the fungus or from cryogenic storage, are directly mixed into nutrient broth. DMSO solutions of the test compound (max. 10 mg/mL) is diluted with 0.025% Tween20 by factor 50 and 10 μL of this solution is pipetted into a microtiter plate (96-well format). […] The test plates are incubated in the dark at 24° C. and 96% relative humidity (rh). The inhibition of fungal growth is determined photometrically and visually after 3-7 days, depending on the pathosystem, and percent antifungal activity relative to the untreated check is calculated.
Conidia of the fungus from cryogenic storage were directly mixed into nutrient broth (PDB potato dextrose broth). After placing a DMSO solution of the test compositions into a microtiter plate (96-well format), the nutrient broth containing the fungal spores was added.

[1] = Alternaria solani, component (B) alone
[2] = component (B) alone, 0.1250 ppm
[3] = component (B) alone, 0.0016 ppm
[4] = component (B) alone, 0.0031 ppm
[5] = component (B) alone, 0.0250 ppm
[6] = component (B) alone, 0.0125 ppm

With `CON=C(C(=O)OC)c1ccccc1CON=C(C)c1cccc(C(F)(F)F)c1` [Trifloxystrobin, trifloxystrobin, reference compound] as the compound, how does the inhibition at […] (Alternaria solani; Alternaria solani, component (B) alone, 0.0078 ppm) read?
Its inhibition at […] is 44%.

What about the inhibition at 0.0313 ppm (Alternaria solani; [1]) of the same compound?
The inhibition at 0.0313 ppm was 71%.

Which “(B) inhibition” value (Botrytis cinerea; component (B) alone, 0.0625 ppm) does the source give for `COc1ccnc(C(=O)N[C@@H](C)C(=O)O[C@@H](C)C(c2ccc(F)cc2)c2ccc(F)cc2)c1OC(C)=O` [Florylpicoxamid, florylpicoxamid] here?
Its value is 56%.

And the “(B) inhibition” value (Botrytis cinerea; [2])?
The value was 59%.

With `O=[N+]([O-])c1cc(C(F)(F)F)c(Cl)c([N+](=O)[O-])c1Nc1ncc(C(F)(F)F)cc1Cl` [Fluazinam, fluazinam] as the compound, how does the inhibition at 0.0006 ppm (Botrytis cinerea; Botrytis cinerea, component (B) alone, 0.0006 ppm) read?
The inhibition at 0.0006 ppm was 3%.

And the inhibition at 0.0012 ppm (Botrytis cinerea; Botrytis cinerea, component (B) alone, 0.0012 ppm)?
The inhibition at 0.0012 ppm was 6%.

And the inhibition at 0.0025 ppm (Botrytis cinerea; Botrytis cinerea, component (B) alone, 0.0025 ppm)?
Its inhibition at 0.0025 ppm is 8%.

What about the inhibition at 0.005 ppm (Botrytis cinerea; Botrytis cinerea, component (B) alone, 0.0050 ppm) of the same compound?
Its inhibition at 0.005 ppm is 6%.

And the inhibition at 0.01 ppm (Botrytis cinerea; Botrytis cinerea, component (B) alone, 0.0100 ppm)?
Its inhibition at 0.01 ppm is 8%.

And the inhibition at 0.0003 ppm (Alternaria solani; Alternaria solani, component (B) alone, 0.0003 ppm)?
The inhibition at 0.0003 ppm was 11%.

What about the inhibition at 0.0025 ppm (Alternaria solani; Alternaria solani, component (B) alone, 0.0025 ppm) of the same compound?
Its inhibition at 0.0025 ppm is 11%.

What about the inhibition at 0.005 ppm (Alternaria solani; Alternaria solani, component (B) alone, 0.0050 ppm) of the same compound?
The inhibition at 0.005 ppm was 11%.

For `CON(C(=O)c1cn(C)nc1C(F)F)C(C)Cc1c(Cl)cc(Cl)cc1Cl` (stereo not shown) [Pydiflumetofen, pydiflumetofen, reference compound], which “(B) inhibition” value (Botrytis cinerea; [3]) is on record?
Its value is 27%.

And the “(B) inhibition” value (Alternaria solani; component (B) alone, 0.0008 ppm)?
The value was 28%.

What about the “(B) inhibition” value (Alternaria solani; [4]) of the same compound?
The value was 71%.

How did the “(B) inhibition” value (Botrytis cinerea; [4]) turn out when `CC(C)c1ccc(Cl)cc1CN(C(=O)c1c(C(F)F)nn(C)c1F)C1CC1` [Isoflucypram, isoflucypram, reference compound] was run?
The value was 37%.

And the “(B) inhibition” value (Alternaria solani; [3])?
The value was 22%.

With `Cn1cc(C(=O)Nc2cccc3c2[C@@H]2CC[C@H]3C2=C(Cl)Cl)c(C(F)F)n1` (racemic) [Benzovindiflupyr, benzovindiflupyr] as the compound, how does the “(B) inhibition” value (Botrytis cinerea; [4]) read?
The value was 26%.

And the “(B) inhibition” value (Botrytis cinerea; [5])?
Its value is 57%.

How did the inhibition at 0.125 ppm (Botrytis cinerea; Botrytis cinerea, component (B) alone, 0.1250 ppm) turn out when `O=C(NCCc1ncc(C(F)(F)F)cc1Cl)c1ccccc1C(F)(F)F` [Fluopyram, fluopyram, reference compound] was run?
Its inhibition at 0.125 ppm is 42%.

And the inhibition at 0.0313 ppm (Alternaria solani; [1])?
Its inhibition at 0.0313 ppm is 49%.

What about the inhibition at 0.0625 ppm (Alternaria solani; Alternaria solani, component (B) alone, 0.0625 ppm) of the same compound?
Its inhibition at 0.0625 ppm is 63%.

What does the source list for `CC[C@@H](C)[C@@H]1NC(=O)[C@@H]2CCCN2C(=O)[C@H](Cc2ccccc2)N(C)C(=O)[C@H](Cc2ccccc2)NC(=O)[C@H](C(C)C)N(C)C(=O)[C@@H]([C@H](C)CC)OC(=O)[C@H](C(C)(C)O)N(C)C(=O)[C@H](CC(C)C)NC(=O)[C@H](C(C)C)N(C)C1=O` [Aureobasidin A] (cyclo(F[NMeF]P[aIle][NMeV]L[NMeVal(β-OH)][X1][NMeV]))?
(A) inhibition (Botrytis cinerea; 0.0002 ppm): 0%; (A) inhibition (Botrytis cinerea; 0.0003 ppm): 0% and 3%; (A) inhibition (Botrytis cinerea; 0.0006 ppm): 0%; (A) inhibition (Botrytis cinerea; 0.0012 ppm): 0% and 7% and 8%; (A) inhibition (Botrytis cinerea; 0.0100 ppm): 23% and 25% and 24%; (A) inhibition (Botrytis cinerea; 0.0200 ppm): 38% and 50% and 33%; (A) inhibition (Botrytis cinerea; 0.040 ppm): 85%; (A) inhibition (Alternaria solani; 0.0001 ppm): 8% and 2% and 0%; (A) inhibition (Alternaria solani; 0.0002 ppm): 2% and 0%; (A) inhibition (Alternaria solani; 0.0003 ppm): 0% and 3%; (A) inhibition (Alternaria solani; 0.0006 ppm): 9% and 6% and 0%; (A) inhibition (Alternaria solani; 0.0012 ppm): 0%; (A) inhibition (Alternaria solani; 0.0025 ppm): 2% and 1% and 0%; (A) inhibition (Alternaria solani; 0.005 ppm): 12%; (A) inhibition (Alternaria solani; 0.0100 ppm): 0%; (A) inhibition (Alternaria solani; 0.040 ppm): 46%

Which results are given for `Cc1cccc(-n2nnn(C)c2=O)c1COc1ccn(-c2ccc(Cl)cc2)n1` [Metyltetrapole, metyltetrapole]?
(B) inhibition (Botrytis cinerea; [6]): 43%; (B) inhibition (Botrytis cinerea; [5]): 56%; (B) inhibition (Alternaria solani; [6]): 73%

`CO/C=C(/C(=O)OC)c1ccccc1Oc1cc(Oc2ccccc2C#N)ncn1` [Azoxystrobin, azoxystrobin] was tested. Which “(B) inhibition” value (Botrytis cinerea; component (B) alone, 0.0313 ppm) did it give?
Its value is 31%.

And the “(B) inhibition” value (Botrytis cinerea; [2])?
The value was 61%.
